Test results from PubChem BioAssay AID1259407 (Chemical Carcinogenesis Research Information System (CCRIS), 2018).
Active and inactive are the calls of the source. The rule behind the calls is not given here.

Tested on: CCRIS mutagenicity, Ames/micronucleus/aberration tests
Test: CCRIS mutagenicity studies
[1] = Test System: AMES SALMONELLA TYPHIMURIUM, Strain/Indicator: TA98, Metabolic Activation: NONE, Method: STANDARD PLATE
[2] = Test System: AMES SALMONELLA TYPHIMURIUM, Strain/Indicator: TA98, Metabolic Activation: RAT, LIVER, S-9, AROCLOR 1254, Method: STANDARD PLATE
[3] = Test System: AMES SALMONELLA TYPHIMURIUM, Strain/Indicator: TA100, Metabolic Activation: NONE, Method: STANDARD PLATE
[4] = Test System: AMES SALMONELLA TYPHIMURIUM, Strain/Indicator: TA100, Metabolic Activation: RAT, LIVER, S-9, AROCLOR 1254, Method: STANDARD PLATE
[5] = Test System: AMES SALMONELLA TYPHIMURIUM, Strain/Indicator: TA1535, Metabolic Activation: NONE, Method: STANDARD PLATE

For CN(N=O)C(=O)N[C@@H](C=O)[C@@H](O)[C@H](O)[C@H](O)CO, the mutagenic call (End Point: IN VITRO CHROMOSOMAL ABERRATIONS, Test System: CHE CELLS, Metabolic Activation: NONE, Method: FISH (METAPHASE)) was “active; positive (structural changes)”, the mutagenic call (Test System: AMES SALMONELLA TYPHIMURIUM, Strain/Indicator: TA97, Metabolic Activation: NONE, Method: STANDARD PLATE) was “active; positive” and the mutagenic call (Test System: AMES SALMONELLA TYPHIMURIUM, Strain/Indicator: TA97, Metabolic Activation: RAT, LIVER, S-9, AROCLOR 1254, Method: STANDARD PLATE) was “inactive; negative”. The mutagenic call [1] was “inactive; negative”, the mutagenic call [2] was “inactive; negative” and the mutagenic call [3] was “active; positive”. For the same compound, the mutagenic call [4] was “inactive; negative”, the mutagenic call [5] was “active; positive” and the mutagenic call (Test System: CHINESE HAMSTER OVARY, Strain/Indicator: CHO-9 (HPRT), Metabolic Activation: NONE) was “active; positive”. For the same compound, the mutagenic call (Test System: CHINESE HAMSTER OVARY, Strain/Indicator: CHO-9/OUABAIN, Metabolic Activation: NONE) was “active; positive”, the mutagenic call (Test System: CHINESE HAMSTER OVARY, Strain/Indicator: CHO-K1-BH4 (HGPRT), Metabolic Activation: NONE, Method: SUSPENSION/PLATE) was “active; positive” and the mutagenic call (Test System: CHINESE HAMSTER OVARY, Strain/Indicator: EM-C11 (HPRT), Metabolic Activation: NONE) was “active; positive”. The mutagenic call (Test System: CHINESE HAMSTER OVARY, Strain/Indicator: EM-C11/OUABAIN, Metabolic Activation: NONE) was “active; positive”, the mutagenic call (Test System: CHINESE HAMSTER V-79, Strain/Indicator: V-79/6-THIOGUANINE, Metabolic Activation: NONE, Method: STANDARD PLATE) was “active; positive” and the mutagenic call (Test System: CHINESE HAMSTER V-79, Strain/Indicator: V-79/8-AZAGUANINE, Metabolic Activation: NONE, Method: STANDARD PLATE) was “active; positive”. For the same compound, the mutagenic call (Test System: E. COLI, Strain/Indicator: WP2 (HCR), Metabolic Activation: NONE, Method: STANDARD PLATE) was “active; positive”.

With CCCCCCCCCCCCCCCCCCCCCCO the mutagenic call [1] was “inactive; negative”, the mutagenic call (Test System: AMES SALMONELLA TYPHIMURIUM, Strain/Indicator: TA98, Metabolic Activation: RAT LIVER S-9, Method: STANDARD PLATE) was “inactive; negative” and the mutagenic call [3] was “inactive; negative”. The mutagenic call (Test System: AMES SALMONELLA TYPHIMURIUM, Strain/Indicator: TA100, Metabolic Activation: RAT LIVER S-9, Method: STANDARD PLATE) was “inactive; negative”, the mutagenic call [5] was “inactive; negative” and the mutagenic call (Test System: AMES SALMONELLA TYPHIMURIUM, Strain/Indicator: TA1535, Metabolic Activation: RAT LIVER S-9, Method: STANDARD PLATE) was “inactive; negative”. The mutagenic call (Test System: AMES SALMONELLA TYPHIMURIUM, Strain/Indicator: TA1537, Metabolic Activation: NONE, Method: STANDARD PLATE) was “inactive; negative”, the mutagenic call (Test System: AMES SALMONELLA TYPHIMURIUM, Strain/Indicator: TA1537, Metabolic Activation: RAT LIVER S-9, Method: STANDARD PLATE) was “inactive; negative” and the mutagenic call (Test System: AMES SALMONELLA TYPHIMURIUM, Strain/Indicator: TA1538, Metabolic Activation: NONE, Method: STANDARD PLATE) was “inactive; negative”. The mutagenic call (Test System: AMES SALMONELLA TYPHIMURIUM, Strain/Indicator: TA1538, Metabolic Activation: RAT LIVER S-9, Method: STANDARD PLATE) was “inactive; negative”, the mutagenic call (Test System: CHINESE HAMSTER V-79, Strain/Indicator: V-79 (HGPRT)/THIOGUANINE, Metabolic Activation: NONE, Method: STANDARD PLATE) was “inactive; negative” and the mutagenic call (Test System: CHINESE HAMSTER V-79, Strain/Indicator: V-79 (HGPRT)/THIOGUANINE, Metabolic Activation: RAT LIVER S-9, Method: STANDARD PLATE) was “inactive; negative”.

For c1ccc2c(c1)c1ccccc1c1cc3cnccc3cc21, the mutagenic call [1] was “inactive; negative”, the mutagenic call (Test System: AMES SALMONELLA TYPHIMURIUM, Strain/Indicator: TA98, Metabolic Activation: RAT, LIVER, S-9, AROCLOR 1254 (10%), Method: STANDARD PLATE) was “active; positive” and the mutagenic call [2] was “active; positive”. For the same compound, the mutagenic call [3] was “inactive; negative”, the mutagenic call (Test System: AMES SALMONELLA TYPHIMURIUM, Strain/Indicator: TA100, Metabolic Activation: RAT, LIVER, S-9, AROCLOR 1254 (10%), Method: STANDARD PLATE) was “active; positive” and the mutagenic call [4] was “active; positive”.
